Measurements published in ChEMBL document CHEMBL1201862, “PubChem BioAssay data set” (2004).
Activity calls are given as the source filed them. For most assays here, no stated cut-off is given here; in the data, actives have a measured IC50 and inactives only a lower limit.

How the values were obtained:
[1] = cytotoxicity toward NIH3T3 fibroblasts, dose response, counter-screen, cell-based, ATP luminescence, mouse fibroblasts (AID 2010); format: functional;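 further: cells exposed to compound for about 90 hours before reading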
[2] = inhibitors of intracellular T. cruzi replication, confirmation, NIH3T3 host cells, beta-gal luminescence (AID 2044); format: functional, cell-based;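 further: intracellular parasites grown in NIH/3T3 mouse fibroblasts as host cells; luminescent beta-galactosidase reporter signal from transgenic T. cruzi replicating inside host cells; inhibitors lower the luminescence signal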
[3] = target: T1, High affinity choline transporter 1 (Homo sapiens, UniProt Q9GZV3); assay: CHT activators, dose response, cell-based, 10-point CRC, membrane potential dye (AID 602376); format: functional
T1 sequence (Q9GZV3 whole entry): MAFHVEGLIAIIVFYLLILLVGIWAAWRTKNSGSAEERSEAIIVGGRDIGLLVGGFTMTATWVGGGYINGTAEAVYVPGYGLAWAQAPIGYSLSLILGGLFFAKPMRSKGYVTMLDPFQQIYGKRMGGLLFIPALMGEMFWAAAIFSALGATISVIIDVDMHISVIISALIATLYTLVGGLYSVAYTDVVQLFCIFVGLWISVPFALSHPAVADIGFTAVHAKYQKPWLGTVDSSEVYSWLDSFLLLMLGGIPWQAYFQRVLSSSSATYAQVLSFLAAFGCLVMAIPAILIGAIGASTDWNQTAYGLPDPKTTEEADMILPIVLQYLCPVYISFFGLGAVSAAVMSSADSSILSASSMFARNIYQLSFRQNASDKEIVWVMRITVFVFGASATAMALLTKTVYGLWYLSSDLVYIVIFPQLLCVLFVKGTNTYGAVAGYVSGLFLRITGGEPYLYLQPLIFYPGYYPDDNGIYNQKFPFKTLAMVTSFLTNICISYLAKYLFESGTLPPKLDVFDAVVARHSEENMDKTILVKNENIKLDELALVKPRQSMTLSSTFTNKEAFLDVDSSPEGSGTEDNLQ

Caspase-3 [4] = target: T2, Caspase-3 (Homo sapiens, UniProt P42574); assay: SAR Analysis of small molecule inhibitors of Sentrin-specific proteases (SENPs) using a Caspase-3 Selectivity assay. [Related pubchem assays (depositor defined):AID2540, AID2599, AID434973, AID489001]; format: functional
T2 sequence (P42574 whole entry): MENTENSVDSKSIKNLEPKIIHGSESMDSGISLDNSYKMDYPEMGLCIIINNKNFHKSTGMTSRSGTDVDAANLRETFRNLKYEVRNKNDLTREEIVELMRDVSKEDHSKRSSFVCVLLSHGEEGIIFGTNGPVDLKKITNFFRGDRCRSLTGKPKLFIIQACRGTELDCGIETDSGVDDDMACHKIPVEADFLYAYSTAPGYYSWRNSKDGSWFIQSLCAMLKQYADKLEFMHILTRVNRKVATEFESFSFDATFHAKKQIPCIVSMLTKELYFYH

[5] = target: T3, Sentrin-specific protease 8 (Homo sapiens, UniProt Q96LD8); assay: SENP8 protease inhibitors, SAR follow-up, biochemical, luminescence (AID 504501); format: functional
T3 sequence (Q96LD8 whole entry): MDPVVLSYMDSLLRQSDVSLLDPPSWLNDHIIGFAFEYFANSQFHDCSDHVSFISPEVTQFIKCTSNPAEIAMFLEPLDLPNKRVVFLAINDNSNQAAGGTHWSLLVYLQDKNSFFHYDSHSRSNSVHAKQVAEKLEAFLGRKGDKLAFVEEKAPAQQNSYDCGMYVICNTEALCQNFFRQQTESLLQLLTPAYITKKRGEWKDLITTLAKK

[6] = target: T4, Sentrin-specific protease 7 (Homo sapiens, UniProt Q9BQF6); format: functional;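 further: Luminescence-based dose-response confirmation of ultra-high-throughput screening hits, measuring inhibition of SENP7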
T4 sequence (Q9BQF6 whole entry): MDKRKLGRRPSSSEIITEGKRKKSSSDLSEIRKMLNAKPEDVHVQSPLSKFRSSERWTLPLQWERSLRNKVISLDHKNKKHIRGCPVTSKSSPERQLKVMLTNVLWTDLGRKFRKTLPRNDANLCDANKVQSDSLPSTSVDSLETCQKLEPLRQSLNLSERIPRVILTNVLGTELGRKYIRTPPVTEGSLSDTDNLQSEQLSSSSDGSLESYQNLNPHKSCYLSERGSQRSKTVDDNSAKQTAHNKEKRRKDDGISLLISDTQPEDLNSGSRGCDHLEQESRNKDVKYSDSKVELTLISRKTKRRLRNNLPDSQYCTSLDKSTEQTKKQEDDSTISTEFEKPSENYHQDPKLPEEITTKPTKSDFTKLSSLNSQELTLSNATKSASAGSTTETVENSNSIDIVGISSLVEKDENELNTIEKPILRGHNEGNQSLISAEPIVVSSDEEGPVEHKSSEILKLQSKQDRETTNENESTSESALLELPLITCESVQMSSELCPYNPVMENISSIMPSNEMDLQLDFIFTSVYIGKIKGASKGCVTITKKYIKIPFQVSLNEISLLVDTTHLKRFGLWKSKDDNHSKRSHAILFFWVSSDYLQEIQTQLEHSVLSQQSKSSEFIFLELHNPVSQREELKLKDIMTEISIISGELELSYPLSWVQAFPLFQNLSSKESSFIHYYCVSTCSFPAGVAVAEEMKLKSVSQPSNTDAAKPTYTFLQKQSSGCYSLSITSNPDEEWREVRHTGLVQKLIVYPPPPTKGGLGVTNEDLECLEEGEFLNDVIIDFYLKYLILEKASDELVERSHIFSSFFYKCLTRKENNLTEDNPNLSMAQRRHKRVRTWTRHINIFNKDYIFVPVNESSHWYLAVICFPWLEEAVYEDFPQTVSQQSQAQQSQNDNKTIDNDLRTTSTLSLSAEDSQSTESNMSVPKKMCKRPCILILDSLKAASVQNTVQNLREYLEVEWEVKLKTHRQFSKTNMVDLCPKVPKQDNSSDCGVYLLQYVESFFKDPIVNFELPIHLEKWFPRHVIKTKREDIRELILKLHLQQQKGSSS

[7] = target: T4, Sentrin-specific protease 7; assay: SENP7 protease inhibitors, SAR follow-up, biochemical, luminescence (AID 504497); format: functional
[8] = target: T5, Sentrin-specific protease 6 (Homo sapiens, UniProt Q9GZR1); format: functional
T5 sequence (Q9GZR1 whole entry): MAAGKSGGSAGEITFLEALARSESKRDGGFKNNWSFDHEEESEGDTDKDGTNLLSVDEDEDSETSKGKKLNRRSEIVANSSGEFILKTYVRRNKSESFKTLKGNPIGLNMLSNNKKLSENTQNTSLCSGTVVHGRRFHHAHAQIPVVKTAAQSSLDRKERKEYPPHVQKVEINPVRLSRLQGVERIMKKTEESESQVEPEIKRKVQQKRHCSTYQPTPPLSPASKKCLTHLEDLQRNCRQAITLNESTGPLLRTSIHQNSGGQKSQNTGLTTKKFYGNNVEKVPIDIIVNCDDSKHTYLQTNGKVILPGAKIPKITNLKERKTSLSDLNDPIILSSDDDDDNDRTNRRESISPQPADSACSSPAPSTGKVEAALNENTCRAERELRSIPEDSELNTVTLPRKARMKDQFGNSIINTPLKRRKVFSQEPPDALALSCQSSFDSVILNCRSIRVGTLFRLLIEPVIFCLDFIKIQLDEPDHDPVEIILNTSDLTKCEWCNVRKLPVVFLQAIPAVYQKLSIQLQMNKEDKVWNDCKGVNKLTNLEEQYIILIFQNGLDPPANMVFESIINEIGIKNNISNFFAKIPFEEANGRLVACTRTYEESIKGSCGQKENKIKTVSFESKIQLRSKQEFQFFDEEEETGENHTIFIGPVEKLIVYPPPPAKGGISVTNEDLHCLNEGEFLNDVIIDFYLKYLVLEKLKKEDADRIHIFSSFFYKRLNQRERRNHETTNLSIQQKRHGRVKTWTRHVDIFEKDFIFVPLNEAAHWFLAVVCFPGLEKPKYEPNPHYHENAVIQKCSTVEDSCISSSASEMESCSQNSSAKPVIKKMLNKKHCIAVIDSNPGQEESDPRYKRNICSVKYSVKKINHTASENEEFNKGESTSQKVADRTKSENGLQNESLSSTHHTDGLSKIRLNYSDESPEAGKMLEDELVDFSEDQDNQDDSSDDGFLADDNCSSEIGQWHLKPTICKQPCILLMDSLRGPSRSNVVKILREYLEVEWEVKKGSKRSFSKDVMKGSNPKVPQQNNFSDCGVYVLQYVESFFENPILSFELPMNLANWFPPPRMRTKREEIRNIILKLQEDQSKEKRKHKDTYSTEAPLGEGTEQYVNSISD

[9] = target: Voltage-dependent T-type calcium channel subunit alpha-1H (Homo sapiens, UniProt O95180); format: functional;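 further: channel activity triggered by adding a high calcium stimulation buffer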
[10] = target: T5, Sentrin-specific protease 6; assay: SAR Analysis of small molecule inhibitors of Sentrin-specific protease 6 (SENP6) using a Luminescent assay. [Related pubchem assays (depositor defined):AID2582, AID2599]; format: functional
Caspase-3 [11] = target: T2, Caspase-3; format: functional
[12] = target: T3, Sentrin-specific protease 8; format: functional

Chain of Voltage-dependent T-type calcium channel subunit alpha-1H (O95180 whole entry): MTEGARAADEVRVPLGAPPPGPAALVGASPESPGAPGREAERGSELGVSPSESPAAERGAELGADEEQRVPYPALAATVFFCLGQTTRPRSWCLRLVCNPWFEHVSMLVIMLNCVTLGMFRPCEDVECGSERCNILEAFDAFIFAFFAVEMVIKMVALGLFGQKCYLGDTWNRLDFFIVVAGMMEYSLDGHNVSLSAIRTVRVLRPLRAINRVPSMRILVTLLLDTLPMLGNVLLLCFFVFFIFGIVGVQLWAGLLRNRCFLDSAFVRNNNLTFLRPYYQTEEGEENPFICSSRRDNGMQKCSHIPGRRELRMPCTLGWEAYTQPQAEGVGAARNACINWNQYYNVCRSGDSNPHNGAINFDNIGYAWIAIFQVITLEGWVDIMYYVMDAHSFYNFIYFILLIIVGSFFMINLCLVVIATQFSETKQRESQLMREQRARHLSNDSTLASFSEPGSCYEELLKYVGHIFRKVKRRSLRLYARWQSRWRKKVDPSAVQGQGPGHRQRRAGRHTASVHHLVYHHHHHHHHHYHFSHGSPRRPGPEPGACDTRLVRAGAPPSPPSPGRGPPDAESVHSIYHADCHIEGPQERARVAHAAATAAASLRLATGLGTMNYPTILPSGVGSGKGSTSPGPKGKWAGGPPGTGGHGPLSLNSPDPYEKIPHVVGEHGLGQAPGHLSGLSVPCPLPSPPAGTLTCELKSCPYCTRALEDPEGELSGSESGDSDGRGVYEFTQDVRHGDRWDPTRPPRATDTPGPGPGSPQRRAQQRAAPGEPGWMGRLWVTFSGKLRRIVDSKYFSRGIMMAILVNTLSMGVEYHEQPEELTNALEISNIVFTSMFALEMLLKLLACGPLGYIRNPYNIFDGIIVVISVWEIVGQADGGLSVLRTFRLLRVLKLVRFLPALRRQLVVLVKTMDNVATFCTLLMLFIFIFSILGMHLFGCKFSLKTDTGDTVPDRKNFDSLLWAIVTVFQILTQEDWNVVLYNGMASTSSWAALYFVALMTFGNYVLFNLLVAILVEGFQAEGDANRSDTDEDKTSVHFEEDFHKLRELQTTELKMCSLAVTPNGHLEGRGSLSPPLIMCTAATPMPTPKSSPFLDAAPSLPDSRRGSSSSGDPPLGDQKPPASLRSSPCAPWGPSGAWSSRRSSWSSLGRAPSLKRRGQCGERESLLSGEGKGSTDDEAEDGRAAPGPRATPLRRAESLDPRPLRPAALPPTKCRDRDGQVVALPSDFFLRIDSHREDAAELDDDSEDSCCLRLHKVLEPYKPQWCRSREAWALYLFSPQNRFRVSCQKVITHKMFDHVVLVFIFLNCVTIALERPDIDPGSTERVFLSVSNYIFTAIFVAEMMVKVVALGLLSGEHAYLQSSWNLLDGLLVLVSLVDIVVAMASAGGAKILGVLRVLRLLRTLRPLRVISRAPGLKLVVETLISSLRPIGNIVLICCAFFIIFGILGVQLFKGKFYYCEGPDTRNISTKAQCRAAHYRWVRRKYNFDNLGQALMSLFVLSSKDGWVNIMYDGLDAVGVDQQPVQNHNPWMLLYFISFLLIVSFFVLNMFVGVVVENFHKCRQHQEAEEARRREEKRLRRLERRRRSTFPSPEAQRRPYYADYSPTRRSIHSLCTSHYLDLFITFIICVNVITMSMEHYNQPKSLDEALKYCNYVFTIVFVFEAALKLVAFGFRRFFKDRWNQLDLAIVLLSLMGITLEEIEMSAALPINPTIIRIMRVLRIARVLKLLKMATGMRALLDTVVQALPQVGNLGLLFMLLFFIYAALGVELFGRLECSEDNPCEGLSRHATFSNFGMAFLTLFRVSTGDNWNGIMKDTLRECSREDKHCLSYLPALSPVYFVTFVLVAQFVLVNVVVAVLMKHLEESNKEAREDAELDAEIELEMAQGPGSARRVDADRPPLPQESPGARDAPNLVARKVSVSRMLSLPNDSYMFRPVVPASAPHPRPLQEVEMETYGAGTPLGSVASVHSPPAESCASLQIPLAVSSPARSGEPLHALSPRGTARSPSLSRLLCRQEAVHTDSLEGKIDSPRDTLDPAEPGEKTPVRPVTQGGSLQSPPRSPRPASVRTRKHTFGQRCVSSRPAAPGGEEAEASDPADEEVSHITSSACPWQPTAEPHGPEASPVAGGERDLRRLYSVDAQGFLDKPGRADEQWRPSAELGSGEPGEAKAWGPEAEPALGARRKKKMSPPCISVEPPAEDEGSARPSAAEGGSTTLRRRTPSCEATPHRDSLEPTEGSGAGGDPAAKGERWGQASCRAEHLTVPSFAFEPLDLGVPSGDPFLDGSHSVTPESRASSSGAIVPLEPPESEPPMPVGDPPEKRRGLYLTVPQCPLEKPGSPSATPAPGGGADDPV

IC50 (Caspase-3 [4])	IC50 [6]	IC50 [7]	IC50 [8]	EC50 [9]	IC50 [10]	IC50 (Caspase-3 [11])	SMILES	EC50 [1]	EC50 [2]	EC50 [3]	IC50 [5]	IC50 [12]
–	–	–	–	–	–	–	CCC(C)(C)n1nnnc1C(c1cccnc1)N1CCN(c2cccc(C(F)(F)F)c2)CC1 (configuration not stated)	> 60 µM (not active)	0.101 µM (active)	16 µM (active)	–	–
5.3 µM (active)	2.9 µM (active)	5.66 µM (active)	> 100 µM (inactive)	11.2 µM (active)	5.76 µM (active)	4.22 µM (active)	Cc1ccc2nc(-c3cccnc3SCC(=O)N3c4ccccc4CC3C)[nH]c2c1 (configuration not stated)	–	–	–	6.28 µM (active)	1.56 µM (active)
